Experimental data as given in patent publication US5129951A, “Aromatic aldehydes and alcohols as potato tuber sprout inhibitors” (priority 1991, dated 1992).

Key:
[1] = system: potato tubers; assay: Tuber sprouting after removal from exposure to volatilized aromatics for 1, 2, 4, 7 or 10 days (Example 2); type: in vivo, Solanum tuberosum L. cv `Norchip`; conditions: 14 days after removal; for % Eyes Sprouted: 25° C., LSD (0.05) 24
Procedure: (§1) Each treatment consisted of placing the tubers in sealed 9.2 l flasks containing excess levels of the treatment compounds at 25° C. as in Example 1. Three tubers were then removed from each treatment after 1, 2, 4, 7, and 10 days, and placed in flasks containing fresh humidified air (free of any additional volatilized compounds) at 25° C. Control tubers were placed in sealed flasks lacking any added compounds and three were removed after 1 and 10 days. Fourteen days after removal from the sealed flasks containing treatment compounds, all tubers were examined for percentage of eyes sprouted, tuber texture, and fungal growth. Each treatment was replicated once and each experiment was repeated once.

[2] = system: fungi; assay: Fungal growth 14 days after direct application of aromatic compounds (Example 3); type: in vivo; conditions: control +; also: key: -: no fungi visible; +: = some fungi; ++: heavy fungal growth
Procedure: (§2) Because the aromatic aldehydes and alcohols may be applied to the stored potatoes by methods other than as volatiles, direct application of the compounds either as pure chemicals or as emulsions was also studied. Emulsions were prepared as either 1% or 10% (v/v) of each compound in distilled water containing 0.05% (v/v) Tween 80 as an emulsifier (control tubers were treated with Tween 80 only). Tubers were treated by dipping each tuber in the test emulsion for 10 seconds, whereupon excess liquid was allowed to drain off. Pure compounds in liquid phase were applied with an atomizing sprayer, ensuring that the entire tuber surface was coated. Each tuber was sprayed with approximately 0.1-0.2 ml of each compound tested. Six tubers per treatment were used, with two replicates, and all experiments were repeated once.

[3] = cited from earlier work; for Temperature at Which Vapor Pressure Equals 1 mm Hg: vapor pressure 1 mm Hg
[4] = system: potato tubers; assay: Tuber sprouting after removal from exposure to volatilized aromatics for 1, 2, 4, 7 or 10 days (Example 2); type: in vivo, Solanum tuberosum L. cv `Norchip`; conditions: exposure for 10 days, 75 days after removal
[5] = system: fungi; assay: Fungal growth on tubers exposed to compounds in headspace gas for 7 days (Example 1); type: in vivo; as to Fungal growth: key: -: no fungi visible; +: = some fungi; ++: heavy fungal growth
Source text: (control flasks lacked any compounds).

[6] = system: fungi; assay: Fungal growth on tubers after removal from exposure to volatilized aromatics (Example 2); type: in vivo
Procedure: as §1

[7] = system: potato tubers; assay: Tuber sprouting 14 days after direct application of aromatic compounds (Example 3); type: in vivo, Solanum tuberosum L. cv `Norchip`; conditions: for % Eyes Sprouted: 25° C., control 98, LSD (0.05) 14
Procedure: as §2

[8] = system: potato tubers; assay: Tuber texture and quality 14 days after direct application of aromatic compounds (Example 3); conditions: for Tuber Texture: control SS
Procedure: as §2

[9] = system: potato tubers; assay: Tuber texture/quality after exposure to compounds in headspace gas for 7 days (Example 1); conditions: 7 days in saturated headspace gas, 25° C.
[10] = Theoretical saturated headspace concentration calculated from known vapor pressures; type: physicochemical; conditions: calculated from known vapor pressures by Ideal Gas Law
Procedure: Because these compounds were difficult to quantitate by gas chromatography at the concentration levels in saturated headspaces, theoretical saturated concentrations were calculated by converting known vapor pressures of each compound at 25° C. to molar concentrations using the Ideal Gas Law, […], where n/V is the molar concentration, P is the partial pressure (atm), R is the Ideal Gas constant (0.0821 l atm/mol ° K.), and T is the temperature (° K.).

[11] = system: potato tubers; assay: Sprout inhibition of tubers exposed to compounds in headspace gas for 7 days (Example 1); type: in vivo, Solanum tuberosum L. cv `Norchip`; conditions: 7 days in saturated headspace gas, 25° C.; for % Eyes Sprouted: dark, control 100, LSD (0.05) 12
[12] = system: potato tubers; assay: Tuber texture after removal from exposure to volatilized aromatics (Example 2); type: in vivo, Solanum tuberosum L. cv `Norchip`; conditions: 14 days after removal from exposure
Procedure: as §1

[13] = system: potato; conditions: Aliaga and Feldheim (1985); cited from earlier work
[14] = 7 days in saturated headspace gas, 25° C.
[15] = 7 days in saturated headspace gas, 25° C., control ++
[16] = 1 day exposure, 14 days after removal, control +
[17] = 4 days exposure, 14 days after removal
[18] = 7 days exposure, 14 days after removal
[19] = 10 days exposure, 14 days after removal, control +
[20] = 14 days after removal from exposure
[21] = 2 days exposure, 14 days after removal

Row | SMILES | % Eyes Sprouted ([1]; 1 day exposure, control 96) | % Eyes Sprouted ([1]; 2 days exposure) | % Eyes Sprouted ([1]; 4 days exposure) | % Eyes Sprouted ([1]; 7 days exposure) | Fungal Growth ([2]; 1% emulsion (dip)) | Fungal Growth ([2]; 100% (pure, sprayed)) | Temperature at Which Vapor Pressure Equals 1 mm Hg [3] | Solubility in Water at 25° C. [3] | effect on fungal growth [5, 14] | Fungal Growth [5, 15] | % Eyes Sprouted ([7]; 1% emulsion (dip)) | % Eyes Sprouted ([7]; 10% emulsion (dip)) | % Eyes Sprouted ([7]; 100% (pure, sprayed)) | Tuber Texture ([8]; 10% emulsion (dip)) | Tuber Texture ([8]; 100% (pure, sprayed)) | tuber condition [9] | Concentration of Saturated Headspace at 25° C. [10] | effect on tuber sprouting [11] | % Eyes Sprouted [11] | effectiveness of main oil components in inhibiting sprouting, weight loss and rot [13] | further results
1 | O=CC=Cc1ccccc1 [Cinnamaldehyde] | 62% | 80% | 64% | 24% | - | - | 76.1 °C | sl. soluble | prevented any visible fungal growth | - | 0% | 0% | 0% | S,N | S,N | firm and appeared healthy | 1900 nM | completely inhibited sprouting | 0% |  | % Eyes Sprouted ([1]; 10 days exposure, control 100): 0%; inhibition of tuber sprouting ([1]; exposure for 7 or fewer days): did not completely inhibit sprouting; inhibition of tuber sprouting ([1]; exposure for 10 days): completely inhibited sprouting; sprouting [4]: remained unsprouted; Fungal Growth [6, 16]: -; Fungal Growth [6, 17]: -; Fungal Growth [6, 18]: -; Fungal Growth [6, 19]: -; Fungal Growth [6, 20]: a small amount of mycelia was detected in a bruised area; inhibition of sprouting ([7]; 1% emulsion): completely inhibited sprouting without damaging the potato tubers; tuber condition ([8]; 1% emulsion): remained hard, with no necrosis or surface pitting
2 | CC(C)c1ccc(C=O)cc1 [Cuminaldehyde] | 63% | 68% | 49% | 8% | - | - | 58.0 °C | insoluble | prevented any visible fungal growth | - | 5% | 43% | 0% | SS,N | SS,N | firm and appeared healthy | 6400 nM | completely inhibited sprouting | 0% |  | % Eyes Sprouted ([1]; 10 days exposure, control 100): 0%; inhibition of tuber sprouting ([1]; exposure for 7 or fewer days): did not completely inhibit sprouting; inhibition of tuber sprouting ([1]; exposure for 10 days): completely inhibited sprouting; sprouting [4]: remained unsprouted; Fungal Growth [6, 16]: -; Fungal Growth [6, 21]: -; Fungal Growth [6, 17]: -; Fungal Growth [6, 18]: -; Fungal Growth [6, 19]: -
3 | CCOC(=O)C=Cc1ccccc1 [Ethyl cinnamate] |  |  |  |  |  |  | 87.6 °C | insoluble |  | + |  |  |  |  |  |  | 700 nM | suppressed sprouting to some degree | 64% |  | 
4 | C=CCc1ccc(O)c(OC)c1 [Eugenol, reference compound] |  |  |  |  | ++ | - | 78.4 °C |  | especially heavy growth | ++ | 32% | 7% | 0% | SS,N | S,N | remained firm | 1600 nM | no significant effect on tuber sprouting | 94% |  | 
5 | O=CCCc1ccccc1 [Hydrocinnamaldehyde, 3-phenyl-propanal] | 90% | 79% | 66% | 51% | - | - |  | sl. soluble | prevented any visible fungal growth | - | 25% | 0% | 0% | S | S,N | firm and appeared healthy |  | completely inhibited sprouting | 0% |  | % Eyes Sprouted ([1]; 10 days exposure, control 100): 24%; Fungal Growth ([2]; 10% emulsion (dip)): ++; Fungal Growth [6, 16]: -; Fungal Growth [6, 21]: -; Fungal Growth [6, 17]: -; Fungal Growth [6, 18]: -; Fungal Growth [6, 19]: -
6 | COC(=O)C=Cc1ccccc1 [Methyl cinnamate] |  |  |  |  |  |  | 77.4 °C | insoluble | suppressed fungal growth | - |  |  |  |  |  |  | 1600 nM | suppressed sprouting to some degree | 16% |  | 
7 | Oc1ccccc1 [Phenol] |  |  |  |  |  |  | 40.1 °C |  |  |  |  |  |  |  |  | blackened, soft to the touch, and displayed evident tissue necrosis | 21000 nM | completely inhibited sprouting | 0% |  | Fungal Growth ([5]; in vivo): -; effect on fungal growth ([5]; in vivo): prevented any visible fungal growth; Tuber Texture ([9]; control SS): S,N
8 | O=Cc1ccccc1O [Salicylaldehyde] | 0% | 0% | 0% | 0% | ++ | - |  |  | prevented any visible fungal growth | - | 0% | 0% | 0% | S,N | S,N | firm and appeared healthy | 36000 nM | completely inhibited sprouting | 0% |  | % Eyes Sprouted ([1]; 10 days exposure, control 100): 0%; inhibition of tuber sprouting ([1]; after 1 or more days of treatment): completely inhibited tuber sprouting; Fungal Growth ([2]; 10% emulsion (dip)): -; sprouting [4]: remained unsprouted; Fungal Growth [6, 16]: -; Fungal Growth [6, 21]: -; Fungal Growth [6, 17]: -; Fungal Growth [6, 18]: -; Fungal Growth [6, 19]: -; Fungal Growth [6, 20]: lacked visible fungal growth; tuber firmness [12]: firm; Tuber Texture ([8]; 1% emulsion (dip)): S,N
9 | C=C(C)C1CC=C(C)CC1 (stereo not shown) [limonene] |  |  |  |  |  |  |  |  |  |  |  |  |  |  |  |  |  |  |  | effective | 
10 | CC1CCC(C(C)C)C(=O)C1 (stereo not shown) [menthone/isomenthone] |  |  |  |  |  |  |  |  |  |  |  |  |  |  |  |  |  |  |  | effective | 
11 | CC(C)=C1CC[C@@H](C)CC1=O [pulegone] |  |  |  |  |  |  |  |  |  |  |  |  |  |  |  |  |  |  |  | effective | 
12 | CC1=CCC2CC1C2(C)C (stereo not drawn) [α-pinene] |  |  |  |  |  |  |  |  |  |  |  |  |  |  |  |  |  |  |  | effective | 
13 | C=C1CCC2CC1C2(C)C (stereo not drawn) [β-pinene] |  |  |  |  |  |  |  |  |  |  |  |  |  |  |  |  |  |  |  | effective | 
